Patent publication US20150037285A1, “METHODS FOR EFFICIENT TRANSFER OF VIABLE AND BIOACTIVE MICROBIOTA” (NEW YORK UNIVERSITY, priority 2013, published 2015)

Tested on: C57BL/6J mice
Experiment: Sub-therapeutic antibiotic treatment (STAT) in drinking water, body composition versus Control drinking water
Format: in vivo
Details: STAT penicillin versus Control drinking water
Source text: C57BL/6J (Jackson Labs, Bar Harbor Me.) mice either received no antibiotics (control) or continuous subtherapeutic antibiotic treatment (STAT) with penicillin in their drinking water. Mice were weaned at 4 weeks onto normal chow (13.2% fat, 5053 PicoLab Rodent Diet 20, LabDiet, Brentwood, Mo.) then changed to a high fat diet (45% kcal from fat, D12451, Research Diets, New Brunswick, N.J.) at 6 weeks of life. At 18 weeks of age, the three animals with weight at or closest to the median were selected as cecal content donors from each group (Control, n=7; STAT, n=8). Donor mice were humanely euthanized, and the proximal ⅓ of the cecum was aseptically removed and immediately (less than 1 minute) placed in reduced (no oxygen), sterile liquid dental transport media (Anaerobe Systems, Morgan Hill Calif.). The cecal samples in anaerobic transport media were brought into an anaerobic chamber within an hour of collection (Sheldon, Cornelius Oreg.). The three cecal samples from each group (STAT or Control) were pooled, and reduced, sterile saline was added to a final volume of 8 mL, of which 3 mL was used for microbiota transfer. To maintain viability of anaerobic organisms, vials containing the inoculum were not opened. […]
Mice were fed normal chow, then switched to high fat diet at 6 weeks of age. […] Microbiota recipient mice were given a high fat diet and monitored for 5 weeks. […]

## penicillin
  Body composition: changes in body composition
